ChEMBL document CHEMBL5634151, “Anti-adipogenic action of a novel oxazole derivative through activation of AMPK pathway” (Eur J Med Chem, 2023)
Calls of active or inactive are those of the source. No cut-off for these calls is given here.

Columns and labels:
[1] = system: 3T3-L1; assay: Cytotoxicity against mouse 3T3-L1 pre-adipocyte cells assessed as reduction in cell viability 100 uM incubated for 48 hrs by MTT assay; assay type: toxicity, cell-based; conditions: 3t3-l1, 48 h
[2] = system: 3T3-L1; assay: Inhibition of MDI-cocktail induced adipogenic differentiation in mouse 3T3-L1 pre-adipocyte cells assessed as reduction in FASN protein expression at 0.5 to 5 uM by Western blot analysis; assay type: functional, cell-based; conditions: dose 0.5-5 µM
[3] = system: 3T3-L1; assay: Inhibition of MDI-cocktail induced adipogenic differentiation in mouse 3T3-L1 pre-adipocyte cells assessed as reduction in FABP4 protein expression at 0.5 to 5 uM by Western blot analysis; assay type: functional, cell-based; conditions: dose 0.5-5 µM
[4] = system: 3T3-L1; assay: Inhibition of MDI-cocktail induced adipogenic differentiation in mouse 3T3-L1 pre-adipocyte cells assessed as increase in AMPK phosphorylation at Thr172 residue by Western blot analysis; assay type: functional, cell-based; conditions: dose 0.5-5 µM
[5] = system: 3T3-L1; assay: Inhibition of MDI-cocktail induced adipogenic differentiation in mouse 3T3-L1 pre-adipocyte cells assessed as increase in ACC phosphorylation at Ser79 residue by Western blot analysis; assay type: functional, cell-based; conditions: dose 0.5-5 µM
[6] = system: 3T3-L1; assay: Inhibition of MDI-cocktail induced adipogenic differentiation in mouse 3T3-L1 pre-adipocyte cells assessed as reduction in PPARgamma gene expression at 5 uM by qRT-PCR analysis; assay type: functional, cell-based
[7] = system: 3T3-L1; assay: Inhibition of MDI-cocktail induced adipogenic differentiation in mouse 3T3-L1 pre-adipocyte cells assessed as reduction in CEBPalpha gene expression at 5 uM by qRT-PCR analysis; assay type: functional, cell-based
[8] = system: 3T3-L1; assay: Inhibition of MDI-cocktail induced adipogenic differentiation in mouse 3T3-L1 pre-adipocyte cells assessed as reduction in FABP4 gene expression at 5 uM by qRT-PCR analysis; assay type: functional, cell-based
[9] = system: 3T3-L1; assay: Anti-adipogenic activity in MDI-cocktail differentiated mouse 3T3-L1 pre-adipocyte cells assessed as reduction in adipogenic differentiation at 5 uM measured after 0 to 3 days by Oil Red O staining based microscopic analysis; assay type: functional, cell-based; conditions: time 0-3 day
[10] = system: C3H 10T1/2; assay: Anti-adipogenic activity in MDI-cocktail differentiated mouse C3H 10T1/2 cells assessed as reduction in adipogenic differentiation at 5 uM measured after 0 to 3 days by Oil Red O staining based microscopic analysis; assay type: functional, cell-based; conditions: time 0-3 day
[11] = system: C3H 10T1/2; assay: Anti-adipogenic activity in MDI-cocktail differentiated mouse C3H 10T1/2 cells assessed as reduction in adipogenic differentiation at 5 uM measured after 0 to 5 days by Oil Red O staining based microscopic analysis; assay type: functional, cell-based; conditions: time 0-5 day
[12] = system: 3T3-L1; assay: Anti-adipogenic activity in MDI-cocktail differentiated mouse 3T3-L1 pre-adipocyte cells assessed as reduction in PPARgamma protein expression at 5 uM measured for 3 to 7 days by immunoblotting analysis; assay type: functional, cell-based; conditions: time 3-7 day
[13] = system: 3T3-L1; assay: Anti-adipogenic activity in MDI-cocktail differentiated mouse 3T3-L1 pre-adipocyte cells assessed as reduction in C/EBPalpha protein expression at 5 uM measured for 3 to 7 days by immunoblotting analysis; assay type: functional, cell-based; conditions: time 3-7 day
[14] = system: 3T3-L1; assay: Anti-adipogenic activity in MDI-cocktail differentiated mouse 3T3-L1 pre-adipocyte cells assessed as reduction in FABP4 protein expression at 5 uM measured for 3 to 7 days by immunoblotting analysis; assay type: functional, cell-based; conditions: time 3-7 day
[15] = system: 3T3-L1; assay: Activation of AMPK pathway in MDI-cocktail differentiated mouse 3T3-L1 pre-adipocyte cells assessed as reversal of 6-(4-(2-(piperidin-1-yl)ethoxy)phenyl)-3-(pyridin-4yl)pyrazolo[1,5-a]pyrimidine induced AMPK inhibition at 5 uM incubated for 72 hrs by immunoblotting analysis; assay type: cell-based; conditions: filed as activator
[16] = system: 3T3-L1; assay: Induction of cell cycle arrest in MDI-cocktail differentiated mouse 3T3-L1 pre-adipocyte cells assessed as reduction in cyclin D1 protein expression at 5 uM measured after 16 to 24 hrs by immunoblotting analysis; assay type: functional, cell-based; conditions: time 16-24 hrs
[17] = system: 3T3-L1; assay: Inhibition of MDI-cocktail induced AKT phosphorylation at Ser473 residue in mouse 3T3-L1 pre-adipocyte cells at 5 uM by immunoblotting analysis; assay type: cell-based
[18] = system: 3T3-L1; assay: Induction of mitochondrial respiration in MDI-cocktail differentiated mouse 3T3-L1 pre-adipocyte cells assessed as increase in oxygen consumption rate at 5 uM incubated for 72 hrs in presence of oligomycin by Seahorse XFp flux analyzer; assay type: functional, cell-based
[19] = system: 3T3-L1; assay: Induction of mitochondrial respiration in MDI-cocktail differentiated mouse 3T3-L1 pre-adipocyte cells assessed as increase in oxygen consumption rate at 5 uM incubated for 72 hrs in presence of FCCP by Seahorse XFp flux analyzer; assay type: functional, cell-based
[20] = system: 3T3-L1; assay: Induction of mitochondrial respiration in MDI-cocktail differentiated mouse 3T3-L1 pre-adipocyte cells assessed as increase in oxygen consumption rate at 5 uM incubated for 72 hrs in presence of rotenone/antimycin A mixture by Seahorse XFp flux analyzer; assay type: functional, cell-based
[21] = system: 3T3-L1; assay: Induction of spare respiratory capacity during early phase in MDI-cocktail differentiated mouse 3T3-L1 pre-adipocyte cells 5 uM incubated for 72 hrs by Seahorse XFp flux analyzer; assay type: functional, cell-based
[22] = system: 3T3-L1; assay: Induction of ATP production during early phase in MDI-cocktail differentiated mouse 3T3-L1 pre-adipocyte cells 5 uM incubated for 72 hrs by Seahorse XFp flux analyzer; assay type: functional, cell-based
[23] = system: 3T3-L1; assay: Induction of proton leak during early phase in MDI-cocktail differentiated mouse 3T3-L1 pre-adipocyte cells 5 uM incubated for 72 hrs by Seahorse XFp flux analyzer; assay type: functional, cell-based
[24] = system: 3T3-L1; assay: Upregulation of CV-ATP5A protein expression in mouse 3T3-L1 mature adipocytes at 1 to 5 uM incubated for 24 hrs by Western blot analysis; assay type: functional, cell-based; conditions: dose 1-5 µM
[25] = system: 3T3-L1; assay: Upregulation of CIV-MTCO1 protein expression in mouse 3T3-L1 mature adipocytes at 1 to 5 uM incubated for 24 hrs by Western blot analysis; assay type: functional, cell-based; conditions: dose 1-5 µM
[26] = system: 3T3-L1; assay: Upregulation of CII-SDHB protein expression in mouse 3T3-L1 mature adipocytes at 1 to 5 uM incubated for 24 hrs by Western blot analysis; assay type: functional, cell-based; conditions: dose 1-5 µM
[27] = system: 3T3-L1; assay: Upregulation of CI-NDUFB8 protein expression in mouse 3T3-L1 mature adipocytes at 1 to 5 uM incubated for 24 hrs by Western blot analysis; assay type: functional, cell-based; conditions: dose 1-5 µM
[28] = system: 3T3-L1; assay: Induction of mitochondrial membrane potential in mouse 3T3-L1 mature adipocytes assessed as increase in TMRE fluorescence at 1 to 5 uM incubated for 24 hrs by TMRE staining based fluorescence microscopic analysis; assay type: functional, cell-based; conditions: dose 1-5 µM
[29] = Toxicity in high-fat diet induced Syrian golden hamster obese model assessed as effect on food intake at 25 to 50 mg/kg, po administered for 7 days and measured daily; assay type: organism-based, Mesocricetus auratus; conditions: in vivo, 168 h, dose 25-50 mg/kg, time 7 day
[30] = system: Syrian golden hamster; assay: Anti-obesity activity in high-fat diet induced Syrian golden hamster model assessed as rescue of normal eWAT weight at 25 to 50 mg/kg, po administered for 7 days; assay type: functional, organism-based; conditions: Mesocricetus auratus, dose 25-50 mg/kg, time 7.0 day
[31] = system: Syrian golden hamster; assay: Anti-obesity activity in high-fat diet induced Syrian golden hamster model assessed as reduction in lean mass at 50 mg/kg, po administered for 7 days by 1H NMR spectroscopy-based Echo MRI system; assay type: functional, organism-based; conditions: Mesocricetus auratus, time 7.0 day
[32] = system: Syrian golden hamster; assay: Anti-obesity activity in high-fat diet induced Syrian golden hamster model assessed as reduction in lipid accumulation in liver cells at 50 mg/kg, po administered for 7 days by H and E staining based inverted microscopic analysis; assay type: functional, organism-based; conditions: Mesocricetus auratus, time 7.0 day
[33] = system: Syrian golden hamster; assay: Anti-dyslipidaemic activity in high-fat diet induced Syrian golden hamster model assessed as assessed as reduction in serum LDL-cholesterol level at 25 to 50 mg/kg, po administered for 7 days; assay type: functional, organism-based; conditions: Mesocricetus auratus, dose 25-50 mg/kg, time 7.0 day

Q: What does the source list for `Cc1ccc(-c2cnc(-c3ccc[n+](Cc4cccc(C)c4)c3)o2)cc1.[Br-]`?
A: Activity [1]: Toxic; inhibition [2]: Active; inhibition [3]: Active; inhibition [4]: Dose-Dependent Effect; inhibition [5]: Dose-Dependent Effect; inhibition [6]: Active; inhibition [7]: Active; inhibition [8]: Active; Activity [9]: Active; Activity [10]: Active; Activity [11]: Active; Activity [12]: Active; Activity [13]: Active; Activity [14]: Active; Activity [15]: Active; Activity [16]: Active; inhibition [17]: Active; Activity [18]: Active; Activity [19]: Active; Activity [20]: Active; Activity [21]: Active; Activity [22]: Active; Activity [23]: Active; Activity [24]: Active; Activity [25]: Active; Activity [26]: Active; Activity [27]: Active; Activity [28]: Active; Activity [29]: Non-Toxic; Activity [30]: Active; Activity [31]: Active; Activity [32]: Active; Activity [33]: Active
